In one test the test system is GFAP. Briefly: GFAP levels in retina, Western Blot, streptozotocin-induced diabetic retinopathy. Format: in vivo, Sprague-Dawley female rats. On the procedure: After a 16-hour fasting, Sprague-Dawley female rats weighing 200-220 g received a single 60 mg/kg intraperitoneal injection of Streptozotocin (STZ; Sigma-Aldrich, St. Louis, Md.) in 10 mM sodium citrate buffer (pH 4.5; Sigma-Aldrich, St. Louis, Md.). Control rats were fasted and received the buffer solution alone. Rats with blood glucose levels higher than 375 mg/dL 7 days after receiving STZ were considered to be diabetic. Diabetic rats were treated with 1% COMPOUND I, 0.5% COMPOUND I or vehicle eye drops 3 time a day for 6 weeks.
After rats were sacrificed as described in last section, eyes were enucleated and bisected. Retinas were peeled from eyecups and immediately homogenized with 0.3 ml ice-cold lysis buffer ([…]; Sigma-Aldrich, St. Louis, Mo.), including 1 μl proteinase inhibitor cocktail ([…]; Sigma-Aldrich, St. Louis, Mo.). The insoluble material was removed by centrifugation at 12,000 g for 20 minutes. Final protein concentrations were determined using a protein assay kit (BCA, Santa Cruz Biotechnology, Santa Cruz, Calif.) according to manufacturer's specifications. The homogenate (80 μg) were separated by NuPAGE Bis-Tris Mini Gels (Invitrogen Life Technologies, Grand Island, N.Y.) and transferred to nitrocellulose membranes by iBlot Gel transfer Device (Invitrogen Life Technologies, Grand Island, N.Y.). The nitrocellulose membranes were treated by BenchPro 4100 Card Processing Station (Invitrogen Life Technologies, Grand Island, N.Y.) according to the instruction of WesternBreeze® Chromogenic Kit-Anti-Rabbit (Invitrogen Life Technologies, Grand Island, N.Y.). The primary antibodies used were anti-GFAP (1:200, Santa Cruz Biotechnology, Santa Cruz, Calif.) and glycealdehyde-3-phosphate dehydrogenase (GAPDH) (1:100), respectively. The Anti-rabbit IgG, AP-linked antibody was used as a second antibody. For quantitative evaluation of the western blot studies, the nitrocellulose membranes were scanned and the optical densities were quantified with analysis software (Pro-gel Analyzer software, Media Cybernetics, Rockville, Md.).
(In general: In western blotting, separated proteins are transferred to a membrane and probed.)

The test system of test [1] is Blood-Retinal Barrier Breakdown in Streptozotocin-Induced Diabetic Macular Edema. Briefly: Evans blue leakage (blood-retinal barrier breakdown) in streptozotocin-induced diabetic macular edema. The format is in vivo, Sprague-Dawley female rats. On the procedure:
After a 16-hour fast, Sprague-Dawley female rats weighing 200-220 g received a single 60 mg/kg intraperitoneal injection of Streptozotocin (STZ; Sigma-Aldrich, St. Louis, Md.) in 10 mM sodium citrate buffer (pH 4.5; Sigma-Aldrich, St. Louis, Md.). Control rats were fasted and received the buffer alone. Rats with blood glucose levels higher than 375 mg/dL 7 days after receiving STZ were considered to be diabetic. Body weight and blood glucose were detected every week. All experiments were performed in accordance with regulations specified by the Guide for the Care and Handling of Laboratory Animals (NIH Publication no. 85-23). For the treatments, rats were instilled with 0.5% and 1% COMPOUND I eye drops. Both eyes of all rats were instilled with 1 drop of ophthalmic solution 3 times a day for 6 weeks after diabetes production. Rats were treated with 0.5% and 1% COMPOUND I or vehicle solution eye drops 3 times a day for […] after glucose levels determination. Animal care and treatment were followed by the institutional guidelines. After induction of general anesthesia, the right jugular vein and right iliac artery were cannulated with 0.28- and 0.58-mm internal diameter polyethylene tubing, respectively, which were filled with heparinized saline (50 IU heparin/ml saline). Evans blue (Sigma-Aldrich, St. Louis, Md.) was injected through the jugular vein over 10 seconds at a dosage of 45 mg/kg. Immediately after Evans blue infusion, the rats turned visibly blue, confirming their uptake and distribution of the dye. Subsequently, at 15-minute intervals, 0.1 ml blood was drawn from the iliac artery for 2 hours to obtain the time-averaged plasma Evans blue concentration. After the dye had circulated for 120 minutes, the chest cavity was opened, and rats were perfused for 2 minutes via the left ventricle at 37° C. with 0.05 M, pH 3.5, citrate-buffered paraformaldehyde (Sigma-Aldrich, St. Louis, Md.). A pH of 3.5 was used to optimize binding of Evans blue to albumin and the perfusion solution was warmed to 37° C. to prevent vasoconstriction. Immediately after perfusion, both eyes were enucleated and dissected at the equator. The retinas were carefully dissected away under an operating microscope and thoroughly dried in vacuum equipment for 5 hours. The dry weight was used to normalize the quantitation of Evans blue leakage. Evans blue was extracted by incubating each retina in […] formamide (Sigma-Aldrich. St. Louis. Md.) for 18 hours at 70° C. […] The background-subtracted absorbance was determined by measuring each sample at both 620 nm, the absorbance maximum for Evans blue in formamide, and 740 nm, the absorbance minimum. The concentration of dye in the extracts was calculated from a standard curve of Evans blue in formamide. […]

Turning to `COc1ccc(COc2c(/C=C/C(=O)NO)ccc(OC)c2CC=C(C)C)cc1` [COMPOUND I], the “GFAP level (Western Blot), DR animals as 100%” value with GFAP (0.5% eye drops tid 6 weeks) is 70%. In the test with GFAP (1% and 0.5% tid. for 6 weeks), the “expression of GFAP proteins in retina vs diabetic control, in words” value is “significantly suppressed”. Moreover, in the test with GFAP (1.0% eye drops tid 6 weeks), the “GFAP level (Western Blot), DR rats as 100%” value is given as 46%. The “Evans blue leakage, diabetic vehicle control group as 100%” value in test [1] (0.5% eye drops 3 times a day) is recorded as 68%; in test [1] (1% eye drops 3 times a day), 56%. Further, the “Evans blue leakage, in words” value in test [1] (0.5% eye drops 3 times a day) is listed as “partially”. For the same molecule, the “Evans blue leakage / BRB breakdown, in words” value in test [1] (1% eye drops 3 times a day, listed as BMX) is listed as “completely restored”.

Values taken from patent US11045435B2, “Methods for treating ocular diseases” (NATUREWISE BIOTECH & MEDICALS CORPORATION, priority 2016, dated 2021).
